# Results taken from US20060121441A1, “Methods of determining the effect of an agent on diploid cells and/or on the pattern of expression of polypeptides expressed therewith” (priority 2002, published 2006).
# Tests used:
# Type in all cases: cell-based, Aplysia californica
# EB3 association with MTs = test: Confocal imaging of EGFP-EB3 and microtubules in cultured neurons; settings: EGFP-EB3-expressing neurons
# Excerpt: (§1) Cell culture—Neurons B1 and B2 from buccal ganglia, MCn neurons from the metacerebral ganglion, sensory neurons from the pleuropeadal ganglion and LUQs from the abdominal ganglion of Aplysia californica were isolated and maintained in culture as previously described [Schacher and Proshansky, (1983); Spira et al., (1993, 1996)].
# Expression constructs—Enzymes were obtained from (New England Biolabs, Beverly, Mass., USA). Each of the chimeric cDNAs of EGFP-EB3, EGFP-p50 and EGFP-MLIV was subcloned into the pCS2+ expression vector as described below [Rupp (1994); Turner and Weintraub (1994)]. For EGFP-EB the pCS2+ vector was cut with XhoI and SnaB. The insert (EGFP-EB3) was cut with NotI, fill in and cut with SalI. For EGFP-P50 the pCS2+ vector was cut with XbaI and the insert was cut with NheI and SpeI.
# In-vitro transcription—5′-capped and 3′-polyadenylated mRNA was in vitro transcribed using recombinant in vitro transcription system (Promega, Madison, Wis., USA,). 10 μg of NotI-linearized pCS2+ was used as a template to transcribe capped mRNA. The transcription reaction was effected with RiboMax-sp6 kit (Promrga-P1280). Briefly, a reaction mixture was prepared by mixing 8 μl Transcription ×5 Buffer, 8 μl rNTPs mix containing 25 mM CTP, ATP, UTP and 12 mM GTP, 4 μl of 15 mM Cap analog (Roche 85846029), 1 μl of 40 units rRnasin (Promega N251A), 4 μl enzyme mix and 1-2 μg linear plasmid. Final reaction volume was compensated to 40 μl. […]
# Mag-fura-2 Ca^2+ imaging—To study the local effect of elevated calcium levels on the distribution of a given fluorescentlly labled protein ratio imaging of the free intracellular calcium concentration was effected by mag fura-2. […] The fluorescence microscopy system consisted of a Zeiss Axiovert microscope equipped with a 75 W Xenon arc lamp, a Zeiss 40×0.75 NA Plan-Neofluar objective, 340±5 nm and 380±5 nm bandpass excitation filters set in a computer-controlled, Lambda10 position filter changer (Sutter, Novato Calif.), a dichroic mirror with a cut-off threshold of 505 nm and a 545±25 nm band pass emission filter. […]
# [1] = tested on: actin bundles at the leading edge of growth cones; test: Confocal imaging of EGFP-actin bundles in growth cones of cultured neurons injected with mRNA encoding EGFP-actin
# Excerpt: as §1
# EGFP cDNA was amplified from pEGFP-N1 vector (Clontech, Palo-Alto, Calif., USA) by polymerase chain reaction (PCR) with two specific primers: 5′-GGCCATGGTGAGCAAGG-3′ and 5′-CTTGTACAGCTCGTCCATG-3′(Genset Oligos) (SEQ ID NOs: 1 and 2, respectively). The PCR product was digested with HindII and SmaI and subcloned into corresponding sites of Bluescript II SK (Stratagen, La Jolla, Calif.). Aplysia actin provided by Dr DesGrosiller (Montreal University, Canada) was amplified by PCR from Bluescript containing the actin cDNA using two specific primers: 5′-ATGTGTGACGACGATGTT-3′ and 5′-TTAGAAGCACTTGCGGTCG-3′ (SEQ ID NOs: 3 and 4, respectively) with SmaI and XbaI restriction sites at their 5′ ends. Following digestion, the PCR product was subcloned in-frame with EGFP into the previously prepared pBluescript-EGFP vector linearized with SmaI and XbaI. The EGFP-Actin fragment was then cut out from pBluescript with ClaI and XbaI and subcloned into corresponding sites of pCS2+ vector [Rupp (1994); Turner and Weintraub (1994) supra]. […]
# microtubules = test: Confocal imaging of EGFP-tubulin labelled microtubules in axotomy-induced growth cone of cultured neurons
# Description: mRNA microinjection—mRNA was injected into the cytoplasm of Aplysia neurons bathed in ASW 8-48 hours following plating. 0.5-5 μg/μl mRNA in 80 mM KCl was used for injection. Injection was performed by pressure using Medical System Corp microinjector inserted into the cell body under visual control. Approximately up to 10% of the cell's body volume was injected. […] Good penetration was indicated by a resting potential of >−35 mV and measuring a typical input resistance. At the end of the injection, the micropipette tip was pooled out gently of the neuron. Cells were imaged for protein expression 12-48 hours following injection.
# Axotomy—Axonal transection was performed by applying pressure on the axon with the thin shaft of a micropipette under visual control, as previously described [Spira et al., 1993, 1996; Ziv and Spira, (1993)].
smiles,measurement,setting,value
CCCC[C@@H](C=O)NC(=O)[C@H](CC(C)C)NC(=O)OCc1ccccc1 [calpeptin],effect on MTs and EB3 association with MTs,EB3 association with MTs,induces milled dissociation of EB3 from the MTs
C=C1[C@@H](C)[C@H]2[C@H](Cc3ccccc3)NC(=O)[C@]23OC(=O)/C=C/[C@H](O)CCC[C@@H](C)C/C=C/[C@H]3[C@@H]1O [cytochalasin B],effect on EGFP labeled actin bundles at the leading edge of growth cones,"[1]; cultured B1 neuron, nine minutes following bath application of 2 mM",actin bundles disassembly and the formation of small actin aggregates within the collapsed growth cones and the axoplasm
same,depolymerisation of fluorescent actin bundles after application,"[1]; growth cone formed after axotomy, FIGS. 3a-b",depolymerised within minutes
C[C@H](CCC(=O)O)C[C@H](C)C[C@H](C)C(=O)/C=C(\O)[C@H](C)C[C@H](C)C/C=C/[C@@H](C)[C@@H](O)[C@@H](C)[C@@H](O)C[C@@H]1CC[C@@](C)([C@H]2CC[C@@](C)([C@@H](C)O)O2)O1 [ionomycin],mimicry of the axotomy-induced MT depolymerization/repolymerization and vesicle trap process by local elevation of [Ca2+]i,EB3 association with MTs; local application,able to mimic the process
COC(=O)Nc1nc2ccc(C(=O)c3cccs3)cc2[nH]1 [nocodazole],effect on EGFP-tubulin microtubules in growth cone lamellipodium,microtubules; bath application 5 mM for 5 min,depolymerisation of most microtubules
same,effect on EGFP labelled microtubules within growth cone,"microtubules; cultured B1 neuron, twenty three minutes following bath application of 5 mM",microtubules depolymerise
same,effect on MTs and EB3 association with MTs,EB3 association with MTs,induces MTs deplymerization and dissociation of EB3 from the MTs
